From patent US20240409585A1, “MACROCYCLIC IMMUNOMODULATORS” (priority 2021, published 2024) come the findings set out here.

Numbered stars: 1 amine (or outer) side, 2 acyl side, 3 side chain; on linkers, the order of the positions; unused ones are H or OH. Bridge positions count the residues as written; N and C are the ends. Square brackets hold non-standard residues; d marks the D form. Peptide text beside a SMILES is read from it. * marks the point of attachment. ξ: configuration not given here. X15 = COC(=O)c1ccc(NS(=O)(=O)NC(=O)C[C@H](N[*:1])C(=O)[*:2])cc1; Phe(3-CF3) = N[C@@H](Cc1cccc(C(F)(F)F)c1)C(=O)O; Ala(morpholin-4-yl) = N[C@@H](CN1CCOCC1)C(=O)O; Phe(4-COOH) = N[C@@H](Cc1ccc(C(=O)O)cc1)C(=O)O; Bip = N[C@@H](Cc1ccc(-c2ccccc2)cc1)C(=O)O; Phe(3-Cl) = N[C@@H](Cc1cccc(Cl)c1)C(=O)O; Phe(4-CN) = N#Cc1ccc(C[C@H](N)C(=O)O)cc1; Phe(3-F) = N[C@@H](Cc1cccc(F)c1)C(=O)O; Phe(3-Me) = Cc1cccc(C[C@H](N)C(=O)O)c1; NMeY = CN[C@@H](Cc1ccc(O)cc1)C(=O)O; Val(3-OH) = CC(C)(O)[C@H](N)C(=O)O; 4Pal = N[C@@H](Cc1ccncc1)C(=O)O; Cha = N[C@@H](CC1CCCCC1)C(=O)O; Cit = NC(=O)NCCC[C@H](N)C(=O)O; Ile(3ξ) = CCC(C)[C@H](N)C(=O)O; Thr(3ξ) = CC(O)[C@H](N)C(=O)O; Carboxymethyl = O=C(O)C*; NMeA = CN[C@@H](C)C(=O)O; Orn = NCCC[C@H](N)C(=O)O; Dab = NCC[C@H](N)C(=O)O; Dap = NC[C@H](N)C(=O)O

For one experiment, the target named is T1, PE-labeled human PD-L1-Ig binding to Jurkat cell line over-expressing human PD-1 (Jurkat-PD-1) (Homo sapiens, UniProt Q15116).
T1 construct: expressed in transfected cells; host or cells: Jurkat
T1 sequence (Q15116 25-288): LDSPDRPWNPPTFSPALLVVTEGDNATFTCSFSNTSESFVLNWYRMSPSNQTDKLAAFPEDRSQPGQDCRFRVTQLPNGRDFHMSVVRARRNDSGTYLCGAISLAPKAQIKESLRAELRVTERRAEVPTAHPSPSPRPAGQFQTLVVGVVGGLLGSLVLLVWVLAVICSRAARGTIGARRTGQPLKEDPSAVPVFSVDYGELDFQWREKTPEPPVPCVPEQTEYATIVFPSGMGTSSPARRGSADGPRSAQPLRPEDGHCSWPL
Briefly: Jurkat-PD-1 Cell Binding High-Content Screening Assay (CBA): Method 1. The following applies: Jurkat-PD-1 cells, PE-labeled PD-L1-Ig; μM; read-out: CBA Method 1 μM.
Regarding `COC(=O)c1ccc(NS(=O)(=O)NC(=O)C[C@@H]2NC(=O)[C@H](Cc3ccc(C(=O)O)cc3)NC(=O)[C@H](CN3CCOCC3)NC(=O)CSC[C@@H](C(=O)N[C@@H](CCN)C(N)=O)NC(=O)[C@H](CCCN)NC(=O)[C@H](C(C)C)NC(=O)[C@H](CC3CCCCC3)NC(=O)[C@H](CCN)NC(=O)[C@@H](CC(C)C)NC(=O)[C@H](C)N(C)C(=O)[C@H](CCC(N)=O)NC(=O)[C@H](Cc3ccc(-c4ccccc4)cc3)NC(=O)[C@H](Cc3ccc(C(=O)O)cc3)NC(=O)[C@H](Cc3cccc(C(F)(F)F)c3)NC2=O)cc1` [Example 5083] ({CH2CO}-[Ala(morpholin-4-yl)][Phe(4-COOH)][X15][Phe(3-CF3)][Phe(4-COOH)][Bip]Q[NMeA][dL][Dab][Cha]V[Orn]C[Dab]-NH2; thioether N-14), the IC50 amounted to 0.355 µM.

The experiment is the same for the next values; noted with them: Jurkat-hPD-1 cells, PE-labeled PD-L1-Ig 20 nM final; read-out: Jurkat HPDL1 PD1 IC50 (uM) (Method 1).
As to `CC(C)C[C@@H]1NC(=O)[C@H](CCN)NC(=O)[C@@H](CC(C)C)NC(=O)[C@H](C)N(C)C(=O)[C@H](CCCNC(=N)N)NC(=O)[C@H](Cc2ccc(-c3ccccc3)cc2)NC(=O)[C@H](C(C)C)NC(=O)[C@H](Cc2c[nH]c3ccccc23)NC(=O)[C@H](CC(=O)O)NC(=O)[C@H](Cc2cccc(Cl)c2)NC(=O)[C@H](CC(N)=O)NC(=O)CSC[C@@H](C(=O)N[C@@H](C)C(N)=O)NC(=O)[C@H]([C@@H](C)O)NC(=O)[C@H](C(C)C)NC1=O` [Compound 1316] ({CH2CO}-N[Phe(3-Cl)]DWV[Bip]R[NMeA][dL][Dab]LVTCA-NH2; thioether N-14), the IC50 was found to be 0.05 µM.

As for `CCC(C)[C@@H]1NC(=O)[C@H](Cc2ccc(-c3ccccc3)cc2)NC(=O)[C@H](CC(C)C)NC(=O)[C@H](Cc2c[nH]c3ccccc23)NC(=O)[C@H](CC(=O)O)NC(=O)[C@H](Cc2ccc(C(=O)O)cc2)NC(=O)[C@H](Cc2ccc(OCC(=O)O)cc2)NC(=O)CSC[C@@H](C(=O)N[C@@H](CC(N)=O)C(N)=O)NC(=O)[C@H](CCC(=O)O)NC(=O)[C@H](C(C)C)NC(=O)[C@H](CC2CCCCC2)NC(=O)[C@H](CCN)NC(=O)[C@@H](CC(C)C)NC(=O)[C@H](C)N(C)C1=O` (stereo partly drawn) [Compound 1924] ({CH2CO}-Y(Carboxymethyl)[Phe(4-COOH)]DWL[Bip][Ile(3ξ)][NMeA][dL][Dab][Cha]VECN-NH2; thioether N-14), the IC50 amounted to 0.04 µM. Turning to `CC(C)C[C@@H]1NC(=O)[C@H](Cc2c[nH]c3ccccc23)NC(=O)[C@H](CC(=O)O)NC(=O)[C@H](Cc2ccc(C#N)cc2)NC(=O)[C@H](CC(N)=O)NC(=O)CSC[C@@H](C(=O)NCC(N)=O)NC(=O)[C@H](CO)NC(=O)[C@H](C(C)C)NC(=O)[C@H](CC(C)C)NC(=O)[C@H](CC(N)=O)NC(=O)[C@@H](CC(C)C)NC(=O)[C@H](C)N(C)C(=O)[C@H](C(C)C)NC(=O)[C@H](Cc2ccc(-c3ccccc3)cc2)NC1=O` [Compound 1527] ({CH2CO}-N[Phe(4-CN)]DWL[Bip]V[NMeA][dL]NLVSCG-NH2; thioether N-14), the IC50 was determined as 0.01 µM.

For `CC(C)C[C@@H]1NC(=O)[C@H](Cc2c[nH]c3ccccc23)NC(=O)[C@H](CC(=O)O)NC(=O)[C@H](Cc2ccc(O)cc2)NC(=O)[C@H](Cc2ccccc2)NC(=O)CSC[C@@H](C(=O)N[C@@H](C)C(N)=O)NC(=O)[C@H](CO)NC(=O)[C@H](CCCCN)NC(=O)[C@H](CC(C)C)NC(=O)[C@H](CC(N)=O)NC(=O)[C@@H](CC(C)C)NC(=O)[C@H](C)N(C)C(=O)[C@H](C(C)C)NC(=O)[C@H](Cc2ccc(-c3ccccc3)cc2)NC1=O` [Compound 1536] ({CH2CO}-FYDWL[Bip]V[NMeA][dL]NLKSCA-NH2; thioether N-14), the IC50 was 0.01 µM. On to `Cc1cccc(C[C@@H]2NC(=O)[C@H](CC(=O)O)NC(=O)[C@H](Cc3ccc(OCC(=O)O)cc3)NC(=O)[C@H](Cc3ccncc3)NC(=O)CSC[C@@H](C(=O)N[C@@H](C)C(N)=O)NC(=O)[C@H]([C@@H](C)O)NC(=O)[C@H](C(C)C)NC(=O)[C@H](CC(C)C)NC(=O)[C@H](CCN)NC(=O)[C@@H](CC(C)C)NC(=O)[C@H](C)N(C)C(=O)[C@H](C(C)C)NC(=O)[C@H](Cc3ccc(-c4ccccc4)cc3)NC(=O)[C@H](C(C)C)NC2=O)c1` [Compound 1419] ({CH2CO}-[4Pal]Y(Carboxymethyl)D[Phe(3-Me)]V[Bip]V[NMeA][dL][Dab]LVTCA-NH2; thioether N-14), for which the IC50 turned out to be 0.01 µM. On to `Cc1cccc(C[C@@H]2NC(=O)[C@H](CC(=O)O)NC(=O)[C@H](Cc3ccc(OCC(=O)O)cc3)NC(=O)[C@H](CN)NC(=O)CSC[C@@H](C(=O)N[C@@H](C)C(N)=O)NC(=O)[C@H]([C@@H](C)O)NC(=O)[C@H](C(C)C)NC(=O)[C@H](CC(C)C)NC(=O)[C@H](CCN)NC(=O)[C@@H](CC(C)C)NC(=O)[C@H](C)N(C)C(=O)[C@H](CCCNC(=N)N)NC(=O)[C@H](Cc3ccc(-c4ccccc4)cc3)NC(=O)[C@H](C(C)C)NC2=O)c1` [Compound 1456] ({CH2CO}-[Dap]Y(Carboxymethyl)D[Phe(3-Me)]V[Bip]R[NMeA][dL][Dab]LVTCA-NH2; thioether N-14), for which the IC50 was 0.04 µM. In the case of `CC(=O)NCC[C@H](NC(=O)[C@@H]1CSCC(=O)N[C@@H](C(C)O)C(=O)N[C@@H](Cc2ccc(OCC(=O)O)cc2)C(=O)N[C@@H](CC(=O)O)C(=O)N[C@@H](Cc2cccc(C)c2)C(=O)N[C@@H](Cc2ccc(C(=O)O)cc2)C(=O)N[C@@H](Cc2ccc(-c3ccccc3)cc2)C(=O)N[C@@H](Cc2ccc(OCC(=O)O)cc2)C(=O)N(C)[C@@H](C)C(=O)N[C@H](CC(C)C)C(=O)N[C@@H](CCN)C(=O)N[C@@H](CC2CCCCC2)C(=O)N[C@@H](C(C)(C)O)C(=O)N[C@@H](Cc2cnc[nH]2)C(=O)N1)C(N)=O` (stereo partly drawn) [Compound 2161] ({CH2CO}-[Thr(3ξ)]Y(Carboxymethyl)D[Phe(3-Me)][Phe(4-COOH)][Bip]Y(Carboxymethyl)[NMeA][dL][Dab][Cha][Val(3-OH)]HC[Dab](Ac)-NH2; thioether N-14), the IC50 was found to be 0.04 µM. As to `CC(C)C[C@@H]1NC(=O)[C@H](CCN)NC(=O)[C@@H](CC(C)C)NC(=O)[C@H](C)N(C)C(=O)[C@H](CCCNC(N)=O)NC(=O)[C@H](Cc2ccc(-c3ccccc3)cc2)NC(=O)[C@H](C(C)C)NC(=O)[C@H](Cc2c[nH]c3ccccc23)NC(=O)[C@H](CC(=O)O)NC(=O)[C@H](Cc2ccc(C#N)cc2)NC(=O)[C@H](CC(N)=O)NC(=O)CSC[C@@H](C(=O)N[C@@H](C)C(N)=O)NC(=O)[C@H]([C@@H](C)O)NC(=O)[C@H](C(C)C)NC1=O` [Compound 1312] ({CH2CO}-N[Phe(4-CN)]DWV[Bip][Cit][NMeA][dL][Dab]LVTCA-NH2; thioether N-14), the IC50 was determined as 0.05 µM.

On to `CC(C)C[C@@H]1NC(=O)[C@H](CCCNC(=N)N)NC(=O)[C@@H](Cc2ccccc2)NC(=O)[C@H](C)N(C)C(=O)[C@H](CCCNC(=N)N)NC(=O)[C@H](Cc2ccc(-c3ccccc3)cc2)NC(=O)[C@H](C(C)C)NC(=O)[C@H](Cc2c[nH]c3ccccc23)NC(=O)[C@H](CC(=O)O)NC(=O)[C@H](Cc2ccc(O)cc2)NC(=O)[C@H](CCC(N)=O)NC(=O)CSC[C@@H](C(=O)NCC(N)=O)NC(=O)[C@H](CO)NC(=O)[C@H](C(C)C)NC1=O` [Compound 1023] ({CH2CO}-QYDWV[Bip]R[NMeA][dF]RLVSCG-NH2; thioether N-14), for which the IC50 is 0.14 µM. Turning to `CC(C)C[C@@H]1NC(=O)[C@H](CCN)NC(=O)[C@@H](CC(C)C)NC(=O)[C@H](Cc2ccc(O)cc2)N(C)C(=O)[C@H](C(C)C)NC(=O)[C@H](Cc2ccc(-c3ccccc3)cc2)NC(=O)[C@H](C(C)C)NC(=O)[C@H](Cc2c[nH]c3ccccc23)NC(=O)[C@H](CC(=O)O)NC(=O)[C@H](Cc2ccc(O)cc2)NC(=O)[C@H](CC(N)=O)NC(=O)CSC[C@@H](C(=O)N[C@@H](C)C(N)=O)NC(=O)[C@H]([C@@H](C)O)NC(=O)[C@H](C(C)C)NC1=O` [Compound 1364] ({CH2CO}-NYDWV[Bip]V[NMeY][dL][Dab]LVTCA-NH2; thioether N-14), the IC50 came out at 0.01 µM. For `CC(C)C[C@@H]1NC(=O)[C@H](CCN)NC(=O)[C@@H](CC(C)C)NC(=O)[C@H](C)N(C)C(=O)[C@H](CCCNC(N)=O)NC(=O)[C@H](Cc2ccc(-c3ccccc3)cc2)NC(=O)[C@H](C(C)C)NC(=O)[C@H](Cc2c[nH]c3ccccc23)NC(=O)[C@H](CC(=O)O)NC(=O)[C@H](Cc2ccc(OCC(=O)O)cc2)NC(=O)[C@H](CN)NC(=O)CSC[C@@H](C(=O)N[C@@H](C)C(N)=O)NC(=O)[C@H]([C@@H](C)O)NC(=O)[C@H](C(C)C)NC1=O` [Compound 1566] ({CH2CO}-[Dap]Y(Carboxymethyl)DWV[Bip][Cit][NMeA][dL][Dab]LVTCA-NH2; thioether N-14), the IC50 stood at 0.04 µM. `CC(C)C[C@@H]1NC(=O)[C@H](CCN)NC(=O)[C@@H](CC(C)C)NC(=O)[C@H](C)N(C)C(=O)[C@H](CCCNC(N)=O)NC(=O)[C@H](Cc2ccc(-c3ccccc3)cc2)NC(=O)[C@H](C(C)C)NC(=O)[C@H](Cc2c[nH]c3ccccc23)NC(=O)[C@H](CC(=O)O)NC(=O)[C@H](Cc2cccc(F)c2)NC(=O)[C@H](CC(N)=O)NC(=O)CSC[C@@H](C(=O)N[C@@H](C)C(N)=O)NC(=O)[C@H]([C@@H](C)O)NC(=O)[C@H](C(C)C)NC1=O` [Compound 1315] ({CH2CO}-N[Phe(3-F)]DWV[Bip][Cit][NMeA][dL][Dab]LVTCA-NH2; thioether N-14): the IC50 amounted to 0.06 µM. With `CC(C)C[C@@H]1NC(=O)[C@H](Cc2c[nH]c3ccccc23)NC(=O)[C@H](CC(=O)O)NC(=O)[C@H](Cc2ccc(O)cc2)NC(=O)[C@H](Cc2ccccc2)NC(=O)CSC[C@@H](C(=O)NCC(N)=O)NC(=O)[C@H](CO)NC(=O)[C@H](C(C)C)NC(=O)[C@H](CC(C)C)NC(=O)[C@H](CC(N)=O)NC(=O)[C@@H](Cc2cnc[nH]2)NC(=O)[C@H](C)N(C)C(=O)[C@H](C(C)C)NC(=O)[C@H](Cc2ccc(-c3ccccc3)cc2)NC1=O` [Compound 1797] ({CH2CO}-FYDWL[Bip]V[NMeA][dH]NLVSCG-NH2; thioether N-14), the IC50 stood at 0.16 µM.
